From patent publication US7981448B2, “Methods of treating necrotizing enterocolitis” (University of Pittsburgh, priority 2002, dated 2011)

Columns and labels:
[1] = system: neonatal rat ileum; experiment: Animal model of necrotizing enterocolitis: gross and microscopic pathology of ileum; assay type: in vivo; conditions: for Gross Changes (n): Bowel wall necrosis / Gross Changes (n): Pneumatosis intestinalis / Microscopic Changes (n): Stromal neutrophils / Microscopic Changes (n): Vacuolization / Microscopic Changes (n): Villous atrophy: day 4 of life
Procedure: (§1) Pregnant time-dated Sprague-Dawley rats were induced at term using subcutaneous injection of Pitocin (1 U). Immediately after birth (day zero), the neonates were weighed and randomized into two main groups. Animals were either left with their mothers and thus breast-fed, or separated from their mothers, housed in an incubator (Ohio Medical Products, Madison, Wis.), gavage fed with a special rodent formula two times daily, and subjected to 10 minutes of hypoxia (5% O2, 95% N2; PraxAir, Pittsburgh, Pa.) prior to each feeding. The formula consisted of 15 g Similac® 60/40 (Ross Pediatrics, Colombus, Ohio) in 75 mL of Esbilac® canine milk replacement (Pet-Ag Inc., Hampshire, Ill.). Rats from each group were further randomized to receive no additional treatment or one-hour per day CO treatment (250 parts per million; ppm, days 1-3). CO was delivered as described below. The neonatal rats were sacrificed on day four. The intestines were inspected for gross necrotic changes and pneumatosis intestinalis. The last 2 cm of terminal ileum was harvested for morphological studies, and mucosal scrapings were collected for detection of protein.
Animals were exposed to CO at a concentration of 250 ppm. Briefly, 1% CO in air was mixed with air (21% oxygen) in a stainless steel mixing cylinder and then directed into a 3.70 ft^3 glass exposure chamber at a flow rate of 12 L/min. A CO analyzer (Interscan, Chatsworth, Calif.) was used to measure CO levels continuously in the chamber. CO concentrations were maintained at 250 ppm at all times. Rats were placed in the exposure chamber as required.
Intestinal specimens were harvested as described above. Hematoxylin and eosin (H&E) slides were prepared as per standard protocol and examined by light microscopy. The presence of morphological changes in the intestinal epithelium, including separation of the villous core, submucosal edema, and epithelial sloughing, were determined by a pathologist in a blinded fashion.

[2] = system: neonatal rat ileum; experiment: TUNEL staining of ileal whole mounts in the NEC model; assay type: in vivo; conditions: H/F neonatal rats, CO 250 ppm 1 h/day days 1-3, ileum day 4
Procedure: as §1
(§2) Animals were exposed to CO at a concentration of 250 ppm. Briefly, 1% CO in air was mixed with air (21% oxygen) in a stainless steel mixing cylinder and then directed into a 3.70 ft^3 glass exposure chamber at a flow rate of 12 L/min. […]

[3] = system: TNF-α; experiment: Serum cytokine determination by ELISA (TNF-α); assay type: in vivo, rat; conditions: H/F neonatal rats + CO 250 ppm; 33.2 fold in H/F without CO
Procedure: as §1, §2

[4] = system: IL-1β; experiment: Serum cytokine determination by ELISA (IL-1β); assay type: in vivo, rat; conditions: H/F neonatal rats + CO 250 ppm; 18.5 fold in H/F without CO
Procedure: as §1, §2

[5] = system: COX-2; experiment: Western blot of ileal mucosal lysates (COX-2); assay type: in vivo, rat; conditions: H/F neonatal rats + CO, ileal mucosa
Procedure: as §1, with “The last 2 cm of terminal ileum was harvested for morphological studies, and mucosal scrapings were collected for detection of protein.” left out
(§3) IEC-6 cells or ileal mucosal scrapings were collected in lysis buffer containing 20 mmol/L Tris with 100 μmol/L phenylmethylsulfonylfluoride (Sigma), 1 μmol/L leupeptin (Sigma), and 1 μmol/L sodium orthovanadate (Sigma). Protein was quantified by bicinchoninic acid (BCA) protein assay (Pierce, Rockford, Ill.). […]

[6] = system: IL-1β; experiment: Western blot of ileal mucosal lysates (IL-1β); assay type: in vivo, rat; conditions: H/F neonatal rats + CO, ileal mucosa
Procedure: as §1, with “The last 2 cm of terminal ileum was harvested for morphological studies, and mucosal scrapings were collected for detection of protein.” left out
as §3

[7] = system: HO-1; experiment: Western blot of ileal mucosal lysates (HO-1); assay type: in vivo, rat; conditions: H/F neonatal rats + CO (data not shown)
Procedure: as §1, with “The last 2 cm of terminal ileum was harvested for morphological studies, and mucosal scrapings were collected for detection of protein.” left out
as §3

[8] = system: iNOS; experiment: Western blot of ileal mucosal lysates (iNOS); assay type: in vivo, rat; conditions: H/F neonatal rats + CO, ileal mucosa
Procedure: as §1, with “The last 2 cm of terminal ileum was harvested for morphological studies, and mucosal scrapings were collected for detection of protein.” left out
as §3

[9] = system: nitrosotyrosines; experiment: Western blot of ileal mucosal lysates (protein nitration); assay type: in vivo, rat; conditions: H/F neonatal rats + CO, ileal mucosa
Procedure: as §1, with “The last 2 cm of terminal ileum was harvested for morphological studies, and mucosal scrapings were collected for detection of protein.” left out
as §3

[10] = system: IEC-6 cells; experiment: TNF-α/Actinomycin D-induced IEC-6 cell death, viability by cellular ATP content; assay type: cell-based, rat; conditions: for TNF-α/ActD-induced IEC-6 cell death (in words): CoPP 16 hours before
Procedure: FIG. 7 is a bar graph illustrating that CO exposure and induction of HO-1 decreases TNF-α/Actinomycin D (TNF/ActD)-induced IEC-6 cell death. Viability of TNF-α (TNF; 10 ng/ml)/Actinomycin D (ActD; 200 ng/ml)-treated IEC-6 cells was assayed after 18 hours by measuring cellular ATP content. CO treatment (CO; gray bars; 250 ppm) was initiated 1 hour prior to administration of TNF-α/ActD and maintained throughout the duration of the experiment. Cross-hatched bars=cells exposed to cobalt protoporphyrin (CoPP) 16 hours prior to exposure to TNF-α/ActD. Black bars=air exposed cells. […] Results are mean±standard error of 3 independent studies performed in triplicate.
(§4) The rat small-intestinal epithelial cell line IEC-6 was obtained from the American Type Culture Collection (Manassas, Va.). Cells were grown in Dulbecco's modified Eagle's medium with 4.5 g/L glucose (Bio-Whittaker, Walkersville, Md.) supplemented with 5% fetal bovine serum, […] (Gibco, Grand Island, N.Y.), 0.1 U/mL insulin, and 100 U/mL penicillin/100 μg/mL streptomycin at 37° C. and 10% CO2. Cells from passages 3 through 20 were used for experiments.
Cell viability was determined by measuring ATP levels (CellTiter-Glo™; Promega) as per the manufacturer's protocol.
To determine whether HO-1 or CO inhibits cell death in vitro, the rat intestinal epithelial cell line IEC-6 was utilized. Cell death was induced by treating these cells with TNF-α (10 ng/ml) plus actinomycin D (ActD; 200 ng/ml). Cell viability was analyzed by crystal violet staining of adherent cells and assessment of cellular ATP content. TNF-α/ActD decreased IEC-6 cell viability to 24±2.1% that of untreated controls (FIG. 7; P<0.05).

[11] = system: iNOS; experiment: iNOS protein expression in IEC-6 cells by Western blot; assay type: cell-based, rat; conditions: 24 hours, CO 250 ppm from 1 hour before; for Cytokine-induced increase in iNOS protein in IEC-6 cells: CM: TNF-α 10 ng/ml, IL-1β 500 U/ml, IFN-γ 1000 U/ml, CoPP 16 hours before
Procedure: FIG. 8A is a picture of a Western blot illustrating (at 24 hours) that iNOS protein expression is inhibited in lipopolysaccharide (LPS) and/or hypoxia (1% oxygen) treated IEC-6 cells. CO treatment (250 ppm) was initiated 1 hour before the addition of LPS/hypoxia and maintained throughout the experiment. The combination of LPS (10 or 100 ng/ml) plus hypoxia increased iNOS protein expression, an effect that was inhibited by CO. The presence (+) or absence (−) of each treatment (lipopolysaccharide (lps), hypoxia exposure (hypoxia) and CO exposure (CO)) is indicated beneath each lane of the Western blot.
(§5) FIG. 8C is a picture of a Western blot illustrating that cytokine-induced iNOS protein expression is inhibited in IEC-6 cells by induction of HO-1 or treatment with CO. IEC-6 cells were treated with a cytokine mixture (CM) containing TNF-α (10 ng/ml), IL-1β (500 U/ml), and IFN-γ (1000 U/ml) for 24 hours. CO treatment (250 ppm) was initiated 1 hour prior to administration of CM and maintained throughout the duration of the experiment. Cobalt protoporphyrin (CoPP) was administered 16 hours prior to CM treatment. CM increased IEC-6 cell iNOS protein. Both CO and CoPP inhibited cytokine-induced increase in iNOS protein. The presence (+) or absence (−) of each treatment (cytokine mixture (CM), CO exposure (CO), and cobalt protoporphyrin exposure (CoPP)) is indicated beneath each lane of the Western blot.
The rat small-intestinal epithelial cell line IEC-6 was obtained from the American Type Culture Collection (Manassas, Va.). […]
as §3

[12] = system: rat iNOS promoter; experiment: Rat iNOS promoter-luciferase reporter assay in IEC-6 cells; assay type: cell-based; conditions: IEC-6, LPS 100 ng/ml + 1% oxygen + CO; 4.9±0.3 fold without CO
Procedure: FIG. 8B is a bar graph illustrating that rat iNOS promoter activity in LPS (100 ng/ml)/hypoxia (1% oxygen; lps/hypoxia)-treated IEC-6 cells is limited by exposure to CO. Cells were assayed for luciferase activity. […] CO limited this transcriptional activation to a 1.7±0.2 fold increase (P<0.05). Results are mean±standard error of 3 independent studies performed in triplicate.
as §4
pGL3/2 rat iNOS promoter-luciferase reporter was constructed as described in Beck et al., FEBS Lett 435:35-38 (1998). IEC-6 cells grown in 35 mm wells were transfected with 4 μL Lipofectamine2000® (Invitrogen), 0.15 μg pGL3/2 DNA and 0.5 μg pIEP-LacZ DNA, which was used as a control for transfection efficiency. Twenty-four hours following transfection, cells were treated for 6 hours, then lysates were collected and a luciferase assay (Promega) was performed with a luminometer (Berthold, Germany).

[13] = system: IEC-6 cells; experiment: Nitrite determination (Griess) in IEC-6 culture medium; assay type: cell-based, rat; conditions: CM stimulation; 17.2±0.9 μM with CM alone, 1.4±0.3 μM unstimulated
Procedure: as §5
FIG. 8D is a bar graph illustrating that the nitrite levels in supernatantants of IEC-6 cells that are exposed to CM and either CO or CoPP are lower than those of IEC-6 cells exposed to CM and air (as determined by Griess assay). Cytokine stimulation increased nitrite to 17.2±0.9 μM compared to 1.4±0.3 μM in unstimulated controls (P<0.01). […] Black bars=air exposed cells; gray bars=CO exposed cells; and cross-hatched bars=CoPP exposed cells. […]
Nitrite (NO2^−) was measured in the culture medium using the Griess method.

[14] = Breast-fed + CO (250 ppm, 1 h/day, days 1-3), total n=7
[15] = Formula-Fed/Hypoxia + CO (250 ppm, 1 h/day, days 1-3), total n=8
[16] = TNF-α 10 ng/ml + ActD 200 ng/ml, 18 hours, CO 250 ppm from 1 hour before

## [C-]#[O+] [CO, carbon monoxide]
[1]; [14]
  Gross Changes (n): Bowel wall necrosis: 0 n
  Gross Changes (n): Pneumatosis intestinalis: 0 n
  Microscopic Changes (n): Stromal neutrophils: 0 n
  Microscopic Changes (n): Vacuolization: 1 n
  Microscopic Changes (n): Villous atrophy: 0 n
[1]; [15]
  Gross Changes (n): Bowel wall necrosis: 2 n
  Gross Changes (n): Pneumatosis intestinalis: 1 n
  Microscopic Changes (n): Stromal neutrophils: 1 n
  Microscopic Changes (n): Vacuolization: 3 n
  Microscopic Changes (n): Villous atrophy: 2 n
[1]; H/F (hypoxia/formula fed) neonatal rats, CO 250 ppm 1 h/day days 1-3, day 4
  Development of experimental NEC: significantly protected
[1]; breast fed neonatal rats, CO 250 ppm 1 h/day days 1-3, day 4
  Effect on gross or microscopic evaluation: no effect
[2]
  TUNEL staining for cell death: diminished
[3]
  Serum TNF-α increase compared to breast fed controls: 3 fold
[4]
  Serum IL-1β increase compared to breast fed controls: 2.5 fold
[5]
  Ileal COX-2 protein expression: decreased expression
[6]
  Ileal IL-1β protein expression: decreased expression
[7]
  Ileal HO-1 expression: decreased expression
[8]
  Ileal iNOS protein: markedly decreased
[9]
  Ileal nitrosotyrosines (protein nitration): markedly decreased
[10]; CO alone, in vitro
  Effect on viability of IEC-6 cells, agent alone: no measurable effect
[10]; [16]
  TNF-α/ActD-induced IEC-6 cell death (in words): significantly decreased
[10]; TNF-α 10 ng/ml + ActD 200 ng/ml, 18 hours, CO 250 ppm from 1 hour before, 24±2.1% without CO
  IEC-6 cell viability compared to untreated controls: 54±5.6%
[11]
  Cytokine-induced increase in iNOS protein in IEC-6 cells: inhibited
[11]; LPS 10 or 100 ng/ml + 1% oxygen
  LPS/hypoxia-induced iNOS protein in IEC-6 cells: inhibited
[12]
  Transcriptional activation of the iNOS promoter, fold increase: 1.7±0.2 fold
[13]
  Nitrite levels in supernatants of cytokine-stimulated IEC-6 cells: 9.8 ± 0.7 µM

## C=CC1=C(C)c2cc3[n-]c(cc4nc(cc5[n-]c(cc1n2)c(C)c5CCC(=O)[O-])C(CCC(=O)[O-])=C4C)c(C)c3C=C.[Co+2].[H+].[H+] [CoPP, cobalt protoporphyrin, reference compound]
[10]; [16]
  TNF-α/ActD-induced IEC-6 cell death (in words): significantly decreased
[11]
  Cytokine-induced increase in iNOS protein in IEC-6 cells: inhibited
[13]
  Nitrite levels in supernatants of cytokine-stimulated IEC-6 cells: 10.4 ± 1.0 µM
